Measurements published in PMC5079557, “Expression of Soluble Forms of Yeast Diacylglycerol Acyltransferase 2 That Integrate a Broad Range of Saturated Fatty Acids in Triacylglycerols” (PLoS ONE, 2016).

Columns and labels:
Dga1pΔ85 [1] = target: T1, Dga1pΔ85 (Yarrowia lipolytica, UniProt Q6C3R2); assay: fluorescent DGAT assay, HPTLC of NBD-TG; assay type: biochemical
T1 construct: gene YALI0_E32769g; lacks 85 N-terminal residues (incl. putative TM domain) of the 515-residue protein; N-terminal MBP fusion kept, ~90 kDa, pMalc2X, E. coli BL21 (DE3) pLysS; dimer on SEC
T1 sequence (Q6C3R2 entry or part of it, stated change not applied): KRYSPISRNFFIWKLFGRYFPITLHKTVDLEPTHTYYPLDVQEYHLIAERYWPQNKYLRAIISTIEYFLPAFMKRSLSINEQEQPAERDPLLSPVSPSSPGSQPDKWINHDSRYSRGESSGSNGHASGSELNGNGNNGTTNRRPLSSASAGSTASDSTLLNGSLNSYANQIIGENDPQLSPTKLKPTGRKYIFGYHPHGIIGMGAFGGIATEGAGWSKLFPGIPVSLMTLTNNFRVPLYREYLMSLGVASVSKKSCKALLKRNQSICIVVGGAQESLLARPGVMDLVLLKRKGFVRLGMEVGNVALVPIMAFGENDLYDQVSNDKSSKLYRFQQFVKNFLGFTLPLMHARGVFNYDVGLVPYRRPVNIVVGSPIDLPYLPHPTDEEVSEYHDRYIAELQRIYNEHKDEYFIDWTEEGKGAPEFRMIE

Dga1pΔ19 [2] = target: T2, Dga1pΔ19 (Yarrowia lipolytica, UniProt Q6C3R2); assay: fluorescent DGAT assay, HPTLC of NBD-TG; assay type: biochemical; settings: 1 mM niacin; 100 μM C18:0-CoA, 100 μM NBD-DG, 20 mM MgCl2, Hepes pH 7.6, 31°C; noncompetitive (per cited literature)
T2 construct: gene YALI0_E32769g; lacks 19 N-terminal residues of the printed 515-residue protein; N-terminal MBP fusion kept, ~99 kDa, pMalc2X, E. coli BL21 (DE3) pLysS; dimer on SEC
T2 sequence (Q6C3R2 entry or part of it, stated change not applied): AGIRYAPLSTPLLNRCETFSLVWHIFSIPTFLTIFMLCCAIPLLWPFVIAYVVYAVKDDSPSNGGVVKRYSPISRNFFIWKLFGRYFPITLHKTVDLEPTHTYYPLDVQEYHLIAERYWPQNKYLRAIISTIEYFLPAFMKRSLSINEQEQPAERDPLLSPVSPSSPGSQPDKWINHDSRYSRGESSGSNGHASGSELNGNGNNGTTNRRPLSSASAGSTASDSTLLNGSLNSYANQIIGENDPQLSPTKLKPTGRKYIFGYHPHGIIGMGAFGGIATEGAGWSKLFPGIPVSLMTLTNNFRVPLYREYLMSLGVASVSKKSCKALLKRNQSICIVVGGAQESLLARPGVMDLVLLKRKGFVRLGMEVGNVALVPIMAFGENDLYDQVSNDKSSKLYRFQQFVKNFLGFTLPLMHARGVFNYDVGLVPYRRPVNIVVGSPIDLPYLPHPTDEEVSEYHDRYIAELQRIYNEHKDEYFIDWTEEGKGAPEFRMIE

Dga1pΔ85 [3] = target: T1, Dga1pΔ85; assay: fluorescent DGAT assay, HPTLC of NBD-TG; assay type: biochemical; settings: 1 mM niacin; 100 μM C18:0-CoA, 100 μM NBD-DG, 20 mM MgCl2, Hepes pH 7.6, 31°C; noncompetitive (per cited literature)
Dga1pΔ19 [4] = target: T2, Dga1pΔ19; assay: fluorescent DGAT assay, HPTLC of NBD-TG; assay type: biochemical; settings: acyl donor; 100 μM NBD-DG, 20 mM MgCl2, Hepes pH 7.6, 0.01% tween 20, 31°C
[5] = target: MBP-Dga1pΔ19 fusion protein (Yarrowia lipolytica); assay: SEC; Hiload 16/60 Superdex 200 column, 4°C; amylose-purified fractions incubated overnight with lysis buffer (50 mM Tris-HCl pH 7.5, 150 mM NaCl, 5% glycerol, 1 mM EDTA, 1 mM TCEP) with 0.5% N-lauroyl sarcosine before the column; major peak taken as a dimer
[6] = target: MBP-Dga1pΔ85 construct (Yarrowia lipolytica); assay: as above

## CCCCCCCCCC(=O)O[C@@H](CO)COC(=O)CCCCCCCCCNc1ccc([N+](=O)[O-])c2nonc12 [NBD-DG]
Dga1pΔ85 [1]; acyl acceptor, labelled compound, 100 μM with C18:0-CoA, 20 mM MgCl2, Hepes pH 7.6, 31°C
  fluorescent DGAT assay, HPTLC of NBD-TG: both recombinant enzymes harbored increasing DGAT activities in the presence of various C18:0-CoA concentrations

## O=C(O)c1cccnc1 [niacin]
Dga1pΔ19 [2]
  % decrease of TG production at 1 mM: 70%
Dga1pΔ85 [3]
  % decrease of TG production at 1 mM: 99.5%

## CCCCCCCCCCCCCCCCCC(=O)SCCNC(=O)CCNC(=O)[C@H](O)C(C)(C)COP(=O)(O)OP(=O)(O)OC[C@H]1O[C@@H](n2cnc3c(N)ncnc32)[C@H](O)[C@@H]1OP(=O)(O)O [stearoyl-CoA]
Dga1pΔ19 [4]
  fluorescent DGAT assay, HPTLC of NBD-TG: C18:0-CoA was an efficient acyl donor for both enzyme versions
Dga1pΔ85 [1]; acyl donor, 100 μM NBD-DG, 20 mM MgCl2, Hepes pH 7.6, 0.01% tween 20, 31°C
  fluorescent DGAT assay, HPTLC of NBD-TG: C18:0-CoA was an efficient acyl donor for both enzyme versions

## MBP-Dga1pΔ19 fusion protein (domain or fragment)
[5]
  stoichiometry N: 2

## MBP-Dga1pΔ85 construct (domain or fragment)
[6]
  stoichiometry N: 2
